According to patent US20230045112A1, “DISULFIRAM AND OTHER REDOX-RELATED COMPOSITIONS FOR BRAIN TUMORS” (Texas Tech University System, priority 2014, published 2023):
Values belong to the molecule of their own block, whether it stands above or below them.

Columns and labels:
[1] = biological target: NQO1 (Homo sapiens, UniProt P15559); assay: NQO1 activity inhibition; type: biochemical
Excerpt: (§1) A tumor-targeted NIR small-molecule dye called NQ-THR, was made and specifically accumulated in cancer cells for tumor NIR imaging and simultaneously trigger tumoricidal oxidative stress by acting as an NQO1-bioactivatable substrate. This […] fluorophore provides sufficient specificity and imaging guidance to promote tumor-specific cell death, which can be used for the cancer treatment as well. NQ-IND, the precursor of NQ-THR is an NQO1 activated prodrug itself, which undergoes redox-cycling to produce ROS in brain tumor cells. The functional groups on NQ-IND are amenable to designing NQO1-activated imaging and therapeutic compounds. ES936 (FIG. 20A) is a highly specific, potent, mechanism-based NQO1 inhibitor (55). Inspired by the structure of ES936, the inventors prepared a compound NQ-IND (FIG. 20B) by removing the inhibitory nitroaryl group. NQ-IND was tested for its activity against NQO1 inhibition and cell viability. […]. On the other hand, NQ-IND attached with the NIR fluorescent dyes can be used to generate a theranostic fluorescent probe NQ-THR with both imaging and therapeutic capabilities.

[2] = biological target: T1, MGMT (Homo sapiens, UniProt P16455); assay: Effect of proteasome inhibitor PS-341 on degradation of DSF-modified MGMT in UW228 cells; type: cell-based; set-up: endogenous in cells; host or cells: UW228, T98G
T1 sequence (P16455 1-207): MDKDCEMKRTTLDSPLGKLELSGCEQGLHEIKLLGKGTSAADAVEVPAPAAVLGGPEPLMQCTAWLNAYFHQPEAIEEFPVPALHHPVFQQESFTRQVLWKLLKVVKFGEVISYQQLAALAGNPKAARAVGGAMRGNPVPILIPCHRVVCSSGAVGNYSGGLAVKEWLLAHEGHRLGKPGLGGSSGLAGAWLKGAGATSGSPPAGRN
Excerpt: The samples were immunoblotted and probed with MGMT antibodies (right panel). The densitometric quantitation of protein bands on the western blots is shown as a line graph on the left. […] Cell lysates were western blotted for the MGMT protein. […] Kinetics of DNA interstrand crosslinks formed in UW228 cells after treatment with […] BCNU or […] melphalan is shown. […] They were then exposed to BCNU or melphalan. At times specified, the cells were harvested, DNA isolated and the extent of interstrand crosslinking of DNA was determined using the ethidium bromide fluorescence assay. Values are mean+S.D. The results were significant at P<0.05. […] The cells were trypsinized at times indicated and analyzed by flow cytometry.
Since the MGMT inactivated by BG is degraded through ub-proteolysis, it was of interest to investigate the mode of elimination of DSF-modified MGMT protein. Therefore, first, we compared the in vitro degradation of DSF-treated and untreated rMGMT protein in rabbit reticulocyte lysates (RL), which are known to promote the proteasomal degradation. The control and DSF-modified MGMT proteins were incubated with RL in the presence of Mg++, ATP and ubiquitin at 37° C. The reaction mixtures were blotted and probed with MGMT antibodies. […] To show the involvement of the ub-proteolysis in cells a clinically used proteasome inhibitor. […]

[3] = test system: cancer cell lines; assay: Cell viability, cancer cell lines (NQ-IND); type: cell-based
Excerpt: as §1

[4] = test system: normal cells; assay: Cell viability, normal cell lines (NQ-IND); type: cell-based
Excerpt: as §1

[5] = test system: ROS; assay: Intracellular ROS by NQ-IND (DCF-DA fluorescence); type: cell-based
Excerpt: as §1

[6] = test system: MGMT inactivated cells and xenografts; assay: Antimetabolite cytotoxicity in MGMT inactivated cells and xenografts; type: cell-based
Excerpt: MGMT performs stoichiometric catalysis to remove mutagenic alkyl groups and dies in the process. […] Inhibition of MGMT by siRNA or 06-benzylguanine led to an S-phase block, perturbed DNA synthesis, and re-replication of the genome.

[7] = test system: UW228 cells; assay: Cell cycle analysis (flow cytometry) and apoptosis markers; type: cell-based, human; conditions: 100 μM BCNU alone, 24 hours
[8] = test system: GBM cell lines; assay: Potentiation of TMZ in DMG-treated cells; type: cell-based
Excerpt: (§2) Synthesis of 2,4-Dimethylene glutaric acid (DMG), an α-ketoglutaric acid (α-KG) mimic for induction of epigenetic modifications: D-2 hydroxyglutarate (D-2HG) effectively replaces the normal metabolite, α-KG in 70% of low-grade pediatric gliomas with IDH mutations. α-KG is a substrate for TET1, TET2 DNA demethylases, and histone demethylases that maintain normal epigenetic homeostasis. D2-HG directly contributes to the CpG-island methylator phenotype (G-CIMP) and MGMT promoter methylation by competing with α-KG and inhibiting the demethylases. As an innovative strategy of understanding the glioma pathology and turning the tide against it, the inventors prepared DMG, a powerful α-KG derivative to replace the natural metabolite in epigenetic demethylase reactions; induction of such therapeutic methylation in non-IDH mutant GBMs was postulated to regress the tumors. […] DMG efficacy in xenografts and MGMT methylation therein are being tested.

[9] = test system: TET1, MGMT; assay: Effect of DMG on TET1 and MGMT activities; type: cell-based; conditions: GBM cell lines
Excerpt: as §2

[10] = biological target: T2, Cys145 of MGMT (Homo sapiens, UniProt P16455); assay: BG-PEG-biotin probe binding to MGMT; conditions: UW228 cell extracts, 20 minutes
T2 construct: hexa-histidine; made in house; host or cells: E. coli
T2 sequence (P16455 1-207): T1 sequence (P16455 1-207)

[11] = test system: NQO1-proficient A549 tumors; assay: NIR imaging of NQO1-proficient tumors in live mice; type: in vivo, nude mice; conditions: one mg/kg intravenously
Excerpt: (§3) Engineering of NQO1 turn-on near-infrared (NIR) fluorophores and theranostic drugs thereof for pediatric brain cancer therapy and multimodality imaging. There is an imperative need for the development of cancer-specific imaging and therapeutic multifunctional or theranostic agents that can allow both imaging and drug delivery. Imaging in the near-infrared (NIR) range of 650-900 nm has been widely used in clinical procedures, because of deep tissue penetration, low autofluorescence, and reduced photon scattering. The inventors developed enzyme-activatable, cell-permeable, non-toxic, and biocompatible ‘turn-on’ NIR fluorescent probes (NIR-ASM, NQ-DCP) that provide accurate detection and visualization of endogenous NQO1 activity both in vitro and an in vivo preclinical model of lung and brain cancers. These fluorophores remain non-fluorescent until cleavage by NQO1 catalysis. In this study, subcutaneous tumors of A549 lung cancer (NQO1-positive) and MDAMB-231 breast cancer (NQO1 negative) were developed in the same animal on opposite flanks.
(§4) The animals were imaged in a IVIS imager at 500-640 nm.

[12] = test system: NQO1-deficient MDAMB-231 tumors; assay: NIR imaging of NQO1-deficient tumors in live mice; type: in vivo, nude mice; conditions: one mg/kg intravenously
Excerpt: as §3, §4

NQO1, sequence (P15559 whole entry): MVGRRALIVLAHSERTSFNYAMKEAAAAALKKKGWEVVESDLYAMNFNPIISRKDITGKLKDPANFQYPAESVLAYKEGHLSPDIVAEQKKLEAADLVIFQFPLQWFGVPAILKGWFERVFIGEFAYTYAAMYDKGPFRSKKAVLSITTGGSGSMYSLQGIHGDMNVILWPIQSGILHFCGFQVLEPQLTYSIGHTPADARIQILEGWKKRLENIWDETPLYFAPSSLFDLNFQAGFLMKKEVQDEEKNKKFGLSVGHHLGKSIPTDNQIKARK

- effect on NQO1 activity [1]: completely inhibited the NQO1 activity
SMILES: COC1=CC(=O)c2c(c(COc3ccc([N+](=O)[O-])cc3)c(C)n2C)C1=O [ES936]

- decrease of MGMT degradation ([2]; 10 μM PS341 co-incubation with 50 μM DSF for 6 hours): 20%
- reduction in the loss of MGMT protein ([2]; pretreated 6 hours with 10 μM PS341 followed by 50 μM DSF for 12 hours): > 50%
SMILES: CC(C)C[C@H](NC(=O)[C@H](Cc1ccccc1)NC(=O)c1cnccn1)B(O)O [PS341, bortezomib]

SMILES: COC1=CC(=O)c2c(c(CO)cn2C)C1=O [NQ-IND]
- effect on NQO1 activity [1]: did not affect the activity of NQO1
- cancer cell proliferation [3]: inhibit cancer cell proliferation selectively
- effect on normal cells [4]: no effect on normal cells
- ROS by DCF-DA fluorescence [5]: generate ROS

SMILES: O=c1[nH]cc(F)c(=O)[nH]1 [5FU]
- increase in cytotoxicity in MGMT inactivated cells and xenografts [6]: 10-15 fold

SMILES: O=NN(CCCl)C(=O)NCCCl [BCNU, 1,3-bis-2-chloroethylnitrosourea]
- G2/M blockade, % of cells [7]: 33 % of cells

SMILES: C=C(CC(=C)C(=O)O)C(=O)O [DMG, 2,4-Dimethylene glutaric acid]
- potentiation of TMZ [8]: 6-8 fold
- effect on TET1, MGMT activities [9]: curtailed TET1, MGMT activities

SMILES: CCN1C(=O)C=CC1=O [NEM, N-ethylmaleimide]
- BG-PEG-biotin labeling of MGMT in cell extracts after drug [10]: prevented the BG-labeling of the protein

SMILES: CC1=C(C)C(=O)C(C(C)(C)CC(=O)Nc2ccc(/C=C/C3=CC(=C(C#N)C#N)CC(C)(C)C3)cc2)=C(C)C1=O [NIR-ASM]
- time to fluorescent signal in tumors [11]: ≤ 5 min
- fluorescent signal in tumors [12]: totally negative after 3 hours
